According to publication PMC11637483, “Dissecting caspase-2-mediated cell death: from intrinsic PIDDosome activation to chemical modulation” (Protein & Cell, 2024):

Tested on: HeLa-CASP2/CASP3/GSDMD TKO + CASP2 cells (human caspase-2)
Test: ATP-based cell viability (CellTiter-Glo) in HeLa TKO cells with exogenous caspase-2 expression
Settings: immunoblotting, HUHS015-treated cells
From the text: Specific chemical compounds are powerful tools for dissecting target-related signaling mechanisms in biological contexts ([Beck et al., 2022]; [Zhang et al., 2012]). Prompted by this notion and possibly to identify a compound that could activate the PIDDosome, we designed a cell death-based high-throughput chemical screen in HeLa cells, in which a triple knockout of CASP2, CASP3, and GSDMD were constructed. CASP3 and GSDMD deficiency served as the background to minimize compound-induced nonspecific cytotoxicity and undesired pyroptosis. Using the triple knockout cells as the control, additional expression of exogenous caspase-2 allows the identification of compounds that can specifically activate the caspase-2-BID pathway and trigger apoptosis through caspase-7. […] In accordance with the apoptosis induction, HUHS015 induced evident processing of caspase-2 expressed in the triple-knockout cells (Fig. 3B). This indicated activation of caspase-2 as the protease-deficient C320A mutant of caspase-2 was not processed upon HUHS015 treatment (Fig. 3B). Accordingly, expression of caspase-2 C320A rendered no cell death in response to HUHS015 treatment (Fig. 3B).
Figure 3. Chemical screen identifies HUHS015 as an agonist of human caspase-2. (A) Screen raw data and selectivity analyses of the compound plate containing HUHS015. The ATP-based viability data of both HeLa-CASP2^−/−CASP3^−/−GSDMD^−/− (TKO) (control group) and TKO cells with exogenous caspase-2 expression (experimental group) are shown. The ratios of the cell viability between the two groups are calculated with 3 as a cutoff for positive compound hit selection. (B) HUHS015-induced cell death depends on caspase-2 activity. HeLa TKO cells expressing WT or enzymatically deficient C320A mutant of caspase-2 were treated with HUHS015. ATP-based cell viability and immunoblotting of caspase-2 cleavage are shown. (C and F) The structures and potencies of HUHS15 (C) and its optimized derivative HUHS15-036 (F). HeLa TKO cells with exogenous caspase-2 expression were treated with titrated compounds. The ATP-based viability data were plotted with compound concentration for EC50 calculation. (D) BID is required for HUHS15-induced caspase-2-dependent cell death. […] Processing of caspase-2, -3, and -7 was analyzed by immunoblotting. […] ATP-based cell viability in panels (B and D) is expressed as mean ± s.d. from three technical replicates. […]
Cell viability was measured by the ATP assay using the CellTiter-Glo® Luminescent Cell Viability Assay kit (Promega).
Drug-related Screening Library (25 × 384-well plate, more than 7,000 compounds) was used for the chemical screen in the TKO HeLa cells rescued with exogenous caspase-2 expression. […] After treatment for 12 h, the cell viability was measured by the ATP assay. […]

With zVAD [reference compound] the “block of HUHS015-induced caspase-2 processing” value was “not blocked”.
